Source: US10478406B2, “High-pH solid-state epinephrine formulation” (HARC Therapeutics AG, priority 2019, dated 2019)

Assay: Suspension assay testing: epinephrine dissolved in suspension
Assay type: physicochemical
Text: Sample numbers /1 and /2 were not acidic. To confirm that these samples produced solid state epinephrine rather than dissolved epinephrine, I had these samples assayed to determine whether the epinephrine had in fact dissolved into solution and if so, by what amount.
Sample numbers /3 and /4 were basic pH. I thus had these samples assayed to determine whether the epinephrine dissolved into solution and if so, by what amount.

## CNC[C@H](O)c1ccc(O)c(O)c1 [Epinephrine, 4-[(1 R)-1-Hydroxy-2-(methylamino)ethyl]-1,2-benzenediol]
Basic pH 8.5
  total epinephrine that dissolves in water: about 0.1%
pH 7, without added acid
  total epinephrine that dissolves in water: about 0.45%
